Test [1] concerns skin-derived precursors (SKPs). The experiment in a line: Whole-cell patch-clamp electrophysiology. The class given is cell-based, rat (neonate Wistar). Conditions: five days after peptide addition at 3 μM, holding potential −80 mV, steps of 20 mV from −100 to 100 mV, VHL(157–168) vs VHL(157–171) p < 0.01. How it is done: (§1) Rodent skin-derived precursor cells (SKPs), which can differentiate to neurons, were used. SKPs were previously isolated from the back dermis of neonate Wistar rats by the authors. These cells were cultured in growth medium composed of DMEM/F12 (1:1; Gibco, Grand Island, NY, USA) containing 2% B27 supplement (Gibco), 20 ng/mL epidermal growth factor (EGF; Upstate Biotechnology, Lake Placid, NY, USA), and 40 ng/mL bFGF (PeproTech EC Ltd., Rocky Hill, NJ, USA) in a humidified incubator at 37 °C with 5% CO2. The floating clusters of cultured cells were centrifuged and dissociated into a single-cell suspension by use of a Pasteur pipette with a flame-polished tip. These single cells were then re-suspended into at a concentration of 50,000 cells/mL for passage or experiments.
(§2) For neuronal differentiation, cells were dissociated into a single-cell suspension by use of a Pasteur pipette and re-suspended into a concentration of 50,000 cells/mL in DMEM/F12 without serum, neurotrophic factors or growth factors. Then, the cells were cultured on poly-L-lysine-coated dishes or cover glasses, and the synthesized peptides at concentrations from 1 to 5 μM were added to the culture medium and delivered into the cells. Three days or more later, the cells were used for morphological, immunocytochemical, immunohistochemical, electrophysiological and immunoprecipitation studies, as well as for Western blot analysis.
To record fast sodium and delayed rectifier potassium currents, we prepared extracellular and intracellular solutions as described previously. […] For recordings and data analysis we used CEZ-2300 (Nihon Kohden, Tokyo, Japan) and pCLAMP 6.0 software (Axon Instruments, Burlingame, CA, USA). Linear components of leak and capacitive currents were reduced by analogue circuitry and then canceled by the P/N method. Signals were sampled every 20 μs, and currents were filtered at 5 kHz. Data were additionally processed with Origin 5.0 (Microcal, Northhampton, MA, USA).
Background: Patch clamp records ionic current or voltage across a cell membrane.

The subject of a further test is STAT3. Nature of the test: Western blotting of STAT3 before and after peptide treatment. The test is classed as cell-based, rat. The settings on record: Western blot, Figure 5B, p < 0.01.
Another test has as its system JAK2. Nature of the test: Western blotting of JAK2 before and after peptide treatment. The test is classed as cell-based, rat. The settings on record: Western blot, Figure 5B, p < 0.01. A general note: Immunoblotting shows a protein as a band on a membrane.
A further test has as its system rat brain. Nature of the test: Immunohistochemistry (NeuN) of transplanted peptide-treated cells in rat brain. The settings on record: 1 × 10^5 peptide-treated cells transplanted into rat brain, 6 weeks; mean ± SEM; vs VHL(157–171): p < 0.01 for VHL(157–168), p < 0.005 for TAT. The test is classed as in vivo, rat (Wistar). As to the method: To evaluate neuronal differentiation of transplanted cells in rat brains, immunohistochemical study was performed as described previously. Before grafting, cells were preincubated with red fluorescence PKH26PCL (Sigma, St. Louis, MO, USA). […] Rats were anesthetized with isoflurane before surgery, and 1 × 10^5 cells were transplanted into rat brain. The rats were perfused with periodate-lysine-paraformaldehyde solution 6 weeks after the transplantation. Their brains were subsequently dissected and postfixed in the same medium for 2 h, cryopreserved in 30% sucrose for 12 h, and then embedded in Tissue Tek OCT compound (Sakura, Tokyo, Japan). Cryostat coronal sections of 14-μm thickness were prepared for immunohistochemistry. For immunostaining, sections were incubated with primary antibody, anti-NeuN antibody, and then incubated in secondary antibody, FITC-conjugated anti-rabbit IgG. Counterstaining was done with DAPI. In immohistochemistry, observations were made with a confocal immunofluorescence microscope (FV300, Olympus, Tokyo, Japan).
Wistar rats (Clea, Tokyo, Japan) were used in all experiments and housed in a temperature controlled room on a 12-h day/night cycle with free access to food and water. All animal experimental procedures were approved by the Institutional Animal Use Committee of Yokohama City University (ID 153, 1 April 2015) and were in accordance with National Institutes of Health guidelines for care and use of laboratory animals.

The subject of test [2] is skin-derived precursors (SKPs). Nature of the test: Neurite outgrowth / morphological evaluation of neuronal differentiation. Conditions: peptides at 1 to 5 μM. The test is classed as cell-based, rat (neonate Wistar). How it is done: as §1, §2
Neurite outgrowth with length exceeding the diameter of the neuronal soma is often assessed as a morphological index of neuronal differentiation. After a single-cell suspension was made by pipetting, the cells were cultured in DMEN/F12 medium alone at 37 °C in a 5% CO2 incubator. Thereafter, neurite outgrowth was evaluated with the following 4 levels: +++, for above 50% of the cells showing neurite outgrowth; ++, for 20–50% with neurite outgrowth; +, for 5–19% having neurite outgrowth; and −, for below 5% of the cells with neurite outgrowth.

Test [3] deals with skin-derived precursors (SKPs). Nature of the test: Immunocytochemistry with anti-Neurofilament-H (NFH) antibody. The test is classed as cell-based, rat (neonate Wistar). The settings on record: immunocytochemistry, peptides at 1 to 5 μM; mean ± SEM; vs VHL(157–171): p < 0.01 for VHL(157–168), p < 0.005 for TAT. How it is done: as §1, §2
Cultured cells were fixed with 4% paraformaldehyde in PBS (Phosphate buffered saline) for 10 min at room temperature. Cells were incubated for 1 h at room temperature with primary antibodies. Antibodies against anti-MAP2 antibody (Sigma-Aldrich, St. Louis, MO, USA), anti-Neurofilment-H (NFH) antibody (Sigma-Aldrich), anti-NeuN antibody (Merk Millipore, Billerica, MA, USA), anti-GFAP antibody (DAKO, Santa Clara, CA, USA), anti-tyrosine hydroxylase (TH) antibody (Merk Millipore, Billerica, MA, USA), anti-choline acetyl transferase (ChAT) antibody (Abbiotec, San Diego, CA, USA), anti-glutamic acid decaboxylase (GAD) antibody (Enzo Life Sciences, Flamingdale, NY, USA), and anti-rhodopsin antibody (Santa Cruz, San Diego, CA, USA) were used. […] Nuclear counterstaining was done with DAPI (Molecular Probes, Eugene, OR, USA) or TO-PRO-3 (Molecular Probes), and observations were made with a fluorescence microscope system (FV300, Olympus, Tokyo, Japan). We counted the number of immuno-positive cells with a given antibody in 4 to 6 random non-overlapping visual fields (50–200 cells per field) in each experiment. […] The degree of positivity was expressed as the rate of immuno-positive cells to the total number of nuclei stained with DAP1 or TO-PRO-3.

For test [4], the system named is skin-derived precursors (SKPs). Nature of the test: Western blot analysis of NFH protein. Conditions: three days after treatment, Figure 3B, peptides at 1 to 5 μM, less than VHL(157–171): VHL(157–168) p < 0.01, TAT p < 0.001. The class given is cell-based, rat (neonate Wistar). How it is done:
as §1, §2
Cultured cells were washed 3 times in cold PBS and then scraped into ice-cold PBS. After incubation on ice for 10 min, the cells were lysed with lysis buffer and centrifuged, after which the supernatants were collected. Each sample was separated by SDS-PAGE under reducing conditions and transferred electrophoretically to nitrocellulose filters. Non-specific binding of antibody was blocked by incubation with 5% donkey serum for 1 h. Western blots were probed with anti-MAP2 antibody, anti-NFH antibody, anti-ChAT antibody, anti-GAD antibody, anti-rhodopsin antibody, anti-TH antibody, and anti-elongin C antibody (Santa Cruz, San Diego, CA, USA) followed by horseradish peroxidase-conjugated secondary antibodies. Protein bands were detected by using a chemical luminescence detection system (ECL Plus Western Blotting Reagent Pack, Amersham, Hemel Hempstead, UK). Images were analyzed with LAS-1000 (Fujifilm, Tokyo, Japan), and the density of the bands was determined by using Image Gauge software (Fujifilm).

As to “YARAAARQARA [TAT, modified TAT protein transduction domain peptide, reference compound]”, the “Voltage-gated outward K+ and inward Na+ currents” value in test [1] is “no current was elicited”. Besides, the STAT3 degradation entry in the test on STAT3 is “Bands for JAK2 and STAT3 were found for pre-treated cells or TAT-treated cells more than post-treated cells”. Moreover, the JAK2 degradation entry in the test with JAK2 was “Bands for JAK2 and STAT3 were found for pre-treated cells or TAT-treated cells more than post-treated cells”. Further, the “Positive rates of NeuN” value in the test on rat brain is reported as 3.2 ± 0.8%. For the same sequence, the Neurite Outgrowth Activity result in test [2] (Figure 2A, rates of cells having neurites, VHL157–168 vs VHL(157–171) p < 0.005) is “scarcely did”. Also, the Morphological change entry in test [2] (phase-contrast microscopy, Figure 1E) is “no morphological change”. In addition, in test [3], the “Percentage of NFH-positive cells” value was determined as 6.9 ± 1.5%. Moreover, the “NFH protein amount / band” value in test [4] is “a faint band”.

For the origin of these results see publication PMC5855688, “BC-Box Motif-Mediated Neuronal Differentiation of Somatic Stem Cells” (International Journal of Molecular Sciences, 2018).
